In the data set the test system is rodent lifetime carcinogenesis bioassay, tumor incidence TD50. Briefly: chronic cancer bioassays in animals – CPDB, compiled studies (AID 1745844).

Each structure is given as a SMILES string. The source made the active and inactive calls. The rule behind the calls is not given here.

The term TD50 denotes the dose at which the toxic effect under study appears in half of the subjects.

`CC(=O)C(N=Nc1ccc(Cl)cc1Cl)C(=O)Nc1ccc(-c2ccc(NC(=O)C(N=Nc3ccc(Cl)cc3Cl)C(C)=O)c(C)c2)cc1C` (stereo unspecified): the TD50 is 11700 mg/kg/day (inactive) (mouse, strain NMRI, both sexes, in feed, site: any site (literature study), lesion: one or several types, types not named, dosed 104 weeks, study length 104 weeks) and 13700 mg/kg/day (inactive) (rat, strain Sprague-Dawley, both sexes, in feed, site: any site (literature study), lesion: one or several types, types not named, dosed 104 weeks, study length 104 weeks).
Take `C=CC1CC=CCC1` (stereo unspecified): the TD50 was 1050 mg/kg/day (mouse, strain B6C3F1, females, by gavage, site: adrenal capsule, lesion: adenoma, NOS, dosed 103 weeks, study length 104 weeks); 149 mg/kg/day (mouse, strain B6C3F1, females, by gavage, site: any site (literature study), lesion: several types, types named in the paper, dosed 103 weeks, study length 104 weeks); 1480 mg/kg/day (mouse, strain B6C3F1, females, by gavage, site: liver, lesion: hepatocellular adenoma + hepatocellular carcinoma + neoplastic nodule, dosed 103 weeks, study length 104 weeks); 19000 mg/kg/day (mouse, strain B6C3F1, females, by gavage, site: lung, lesion: alveolar/bronchiolar adenoma + alveolar/bronchiolar carcinoma, dosed 103 weeks, study length 104 weeks); 839 mg/kg/day (mouse, strain B6C3F1, females, by gavage, site: mesenteric lymph node + multiple organs + small intestine, lesion: malignant lymphoma, lymphocytic type, dosed 103 weeks, study length 104 weeks); 94.4 mg/kg/day (mouse, strain B6C3F1, females, by gavage, site: ovary, lesion: granulosa-cell carcinoma + granulosa-cell tumor + mixed tumor, benign, dosed 103 weeks, study length 104 weeks). Moreover, the TD50 runs as follows: (mouse, strain B6C3F1, females, by gavage, site: ovary, lesion: granulosa-cell carcinoma + granulosa-cell tumor, dosed 103 weeks, study length 104 weeks) 309 mg/kg/day; (mouse, strain B6C3F1, females, by gavage, site: ovary, lesion: granulosa-cell tumor, dosed 103 weeks, study length 104 weeks) 361 mg/kg/day; (mouse, strain B6C3F1, females, by gavage, site: ovary, lesion: mixed tumor, benign, dosed 103 weeks, study length 104 weeks) 106 mg/kg/day; (mouse, strain B6C3F1, males, by gavage, site: any site (literature study), lesion: several types, types named in the paper, dosed 103 weeks, study length 104 weeks) 307 mg/kg/day; (mouse, strain B6C3F1, males, by gavage, site: liver, lesion: hepatocellular adenoma + hepatocellular carcinoma + neoplastic nodule, dosed 103 weeks, study length 104 weeks) 1270 mg/kg/day; (mouse, strain B6C3F1, males, by gavage, site: lung, lesion: alveolar/bronchiolar adenoma + alveolar/bronchiolar carcinoma, dosed 103 weeks, study length 104 weeks) 490 mg/kg/day. Further, the TD50 (mouse, strain B6C3F1, males, by gavage, site: lung, lesion: alveolar/bronchiolar adenoma, dosed 103 weeks, study length 104 weeks) was determined as 926 mg/kg/day; the TD50 (mouse, strain B6C3F1, males, by gavage, site: mesenteric lymph node + multiple organs + spleen, lesion: malignant lymphoma, histiocytic type + malignant lymphoma, mixed type + malignant lymphoma, lymphocytic type, dosed 103 weeks, study length 104 weeks) was found to be 623 mg/kg/day; the TD50 (rat, strain Fischer 344, females, by gavage, site: any site (literature study), lesion: several types, types named in the paper, dosed 103 weeks, study length 104 weeks) is 305 mg/kg/day; the TD50 (rat, strain Fischer 344, females, by gavage, site: clitoral gland, lesion: adenoma, NOS + squamous-cell carcinoma, dosed 103 weeks, study length 104 weeks) was found to be 580 mg/kg/day; the TD50 (rat, strain Fischer 344, females, by gavage, site: liver, lesion: hepatocellular adenoma + hepatocellular carcinoma + neoplastic nodule, dosed 103 weeks, study length 104 weeks) amounted to 3.85e+06 mg/kg/day; the TD50 (rat, strain Fischer 344, males, by gavage, site: adrenal gland, lesion: pheochromocytoma + pheochromocytoma, malignant, dosed 103 weeks, study length 104 weeks) is 159 mg/kg/day. Also, the TD50 is, setting by setting: (rat, strain Fischer 344, males, by gavage, site: any site (literature study), lesion: several types, types named in the paper, dosed 103 weeks, study length 104 weeks) 119 mg/kg/day; (rat, strain Fischer 344, males, by gavage, site: liver, lesion: hepatocellular adenoma + hepatocellular carcinoma + neoplastic nodule, dosed 103 weeks, study length 104 weeks) 132000 mg/kg/day; (rat, strain Fischer 344, males, by gavage, site: skin, lesion: squamous-cell carcinoma + squamous-cell papilloma, dosed 103 weeks, study length 104 weeks) 769 mg/kg/day; (rat, strain Fischer 344, males, by gavage, site: skin, lesion: squamous-cell papilloma, dosed 103 weeks, study length 104 weeks) 935 mg/kg/day; (rat, strain Fischer 344, males, by gavage, site: testis, lesion: interstitial-cell tumor, dosed 103 weeks, study length 104 weeks) 62.3 mg/kg/day.
Consider `CC(C)N(C(=O)SCC(Cl)=CCl)C(C)C`, for which the TD50 (mouse, strain B6AKF1, females, oral dosing, site: any site (literature study), lesion: several types, types named in the paper, dosed 85 weeks, study length 85 weeks) stood at 1990 mg/kg/day; the TD50 (mouse, strain B6AKF1, females, oral dosing, site: liver, lesion: hepatoma, dosed 85 weeks, study length 85 weeks) was determined as 516 mg/kg/day; the TD50 (mouse, strain B6AKF1, females, oral dosing, site: lung, lesion: adenoma, dosed 85 weeks, study length 85 weeks) amounted to 4260 mg/kg/day; the TD50 (mouse, strain B6AKF1, males, oral dosing, site: any site (literature study), lesion: several types, types named in the paper, dosed 84 weeks, study length 84 weeks) was found to be 35.4 mg/kg/day; the TD50 (mouse, strain B6AKF1, males, oral dosing, site: liver, lesion: hepatoma, dosed 84 weeks, study length 84 weeks) was 43 mg/kg/day; the TD50 (mouse, strain B6AKF1, males, oral dosing, site: lung, lesion: adenoma, dosed 84 weeks, study length 84 weeks) stood at 243 mg/kg/day. The TD50 (mouse, strain B6C3F1, females, oral dosing, site: any site (literature study), lesion: several types, types named in the paper, dosed 83 weeks, study length 83 weeks) worked out at 90.8 mg/kg/day; the TD50 (mouse, strain B6C3F1, females, oral dosing, site: liver, lesion: several types, types named in the paper, dosed 83 weeks, study length 83 weeks) was determined as 164 mg/kg/day; the TD50 (mouse, strain B6C3F1, females, oral dosing, site: lung, lesion: adenoma, dosed 83 weeks, study length 83 weeks) is 255 mg/kg/day; the TD50 (mouse, strain B6C3F1, males, oral dosing, site: any site (literature study), lesion: several types, types named in the paper, dosed 84 weeks, study length 84 weeks) was found to be 15.6 mg/kg/day; the TD50 (mouse, strain B6C3F1, males, oral dosing, site: liver, lesion: hepatoma, dosed 84 weeks, study length 84 weeks) is 19.4 mg/kg/day; the TD50 (mouse, strain B6C3F1, males, oral dosing, site: lung, lesion: adenoma, dosed 84 weeks, study length 84 weeks) was 113 mg/kg/day.
In the case of `CC(=O)[O-].CC(=O)[O-].CC(=O)[O-].[Cr+3]`, the carcinogen call is “negative (inactive)” (mouse, strain Charles River CD1, females, in drinking water, site: any site (literature study), lesion: one or several types, types not named, dosed 145 weeks, study length 145 weeks); “negative (inactive)” (mouse, strain Charles River CD1, females, in drinking water, site: lung, lesion: one or several types, types not named, dosed 145 weeks, study length 145 weeks); “negative (inactive)” (mouse, strain Charles River CD1, males, in drinking water, site: any site (literature study), lesion: one or several types, types not named, dosed 139 weeks, study length 139 weeks); “negative (inactive)” (mouse, strain Charles River CD1, males, in drinking water, site: lung, lesion: one or several types, types not named, dosed 139 weeks, study length 139 weeks); “negative (inactive)” (rat, strain Long-Evans BLU:(LE), both sexes, in drinking water, site: liver, lesion: one or several types, types not named, dosed 182 weeks, study length 182 weeks). Moreover, the TD50 is 7.62 mg/kg/day (inactive) (rat, strain Long-Evans BLU:(LE), both sexes, in drinking water, site: any site (literature study), lesion: malignant tumor, dosed 182 weeks, study length 182 weeks) and 1.61 mg/kg/day (inactive) (rat, strain Long-Evans BLU:(LE), both sexes, in drinking water, site: any site (literature study), lesion: one or several types, types not named, dosed 182 weeks, study length 182 weeks).
`Clc1ccc(C(c2ccc(Cl)cc2)C(Cl)Cl)cc1`: the TD50 was 37.4 mg/kg/day (mouse, strain B6AKF1, females, oral dosing, site: any site (literature study), lesion: several types, types named in the paper, dosed 76 weeks, study length 76 weeks); 73 mg/kg/day (mouse, strain B6AKF1, females, oral dosing, site: lung, lesion: adenoma, dosed 76 weeks, study length 76 weeks); 49 mg/kg/day (mouse, strain B6AKF1, males, oral dosing, site: any site (literature study), lesion: several types, types named in the paper, dosed 76 weeks, study length 76 weeks); 82.9 mg/kg/day (mouse, strain B6AKF1, males, oral dosing, site: lung, lesion: adenoma, dosed 76 weeks, study length 76 weeks); 108 mg/kg/day (inactive) (mouse, strain B6C3F1, females, in feed, site: any site (literature study), lesion: several types, types named in the paper, dosed 78 weeks, study length 90 weeks); 493 mg/kg/day (mouse, strain B6C3F1, females, in feed, site: liver, lesion: hepatocellular adenoma + hepatocellular carcinoma + neoplastic nodule, dosed 78 weeks, study length 90 weeks). The TD50 by setting is: (mouse, strain B6C3F1, females, oral dosing, site: any site (literature study), lesion: several types, types named in the paper, dosed 76 weeks, study length 76 weeks) 250 mg/kg/day; (mouse, strain B6C3F1, females, oral dosing, site: lung, lesion: adenoma, dosed 76 weeks, study length 76 weeks) 250 mg/kg/day; (mouse, strain B6C3F1, males, in feed, site: any site (literature study), lesion: several types, types named in the paper, dosed 78 weeks, study length 90 weeks) 997 mg/kg/day (inactive); (mouse, strain B6C3F1, males, in feed, site: liver, lesion: hepatocellular adenoma + hepatocellular carcinoma + neoplastic nodule, dosed 78 weeks, study length 90 weeks) 116 mg/kg/day; (mouse, strain B6C3F1, males, oral dosing, site: any site (literature study), lesion: several types, types named in the paper, dosed 76 weeks, study length 76 weeks) 34.8 mg/kg/day; (mouse, strain B6C3F1, males, oral dosing, site: liver, lesion: hepatoma, dosed 76 weeks, study length 76 weeks) 43.3 mg/kg/day. In addition, the TD50 runs as follows: (mouse, strain B6C3F1, males, oral dosing, site: lung, lesion: adenoma, dosed 76 weeks, study length 76 weeks) 120 mg/kg/day; (mouse, strain CF-1, females, in feed, site: any site (literature study), lesion: several types, types named in the paper, dosed 123 weeks, study length 123 weeks) 67.1 mg/kg/day; (mouse, strain CF-1, females, in feed, site: liver, lesion: hepatoma, dosed 123 weeks, study length 123 weeks) 4830 mg/kg/day (inactive); (mouse, strain CF-1, females, in feed, site: lung, lesion: several types, types named in the paper, dosed 123 weeks, study length 123 weeks) 39.9 mg/kg/day; (mouse, strain CF-1, males, in feed, site: any site (literature study), lesion: several types, types named in the paper, dosed 123 weeks, study length 123 weeks) 33.2 mg/kg/day; (mouse, strain CF-1, males, in feed, site: liver, lesion: hepatoma, dosed 123 weeks, study length 123 weeks) 86.8 mg/kg/day. Also, the TD50 was 24.9 mg/kg/day (mouse, strain CF-1, males, in feed, site: lung, lesion: several types, types named in the paper, dosed 123 weeks, study length 123 weeks); 2080 mg/kg/day (rat, strain Osborne-Mendel, females, in feed, site: liver, lesion: hepatocellular adenoma + hepatocellular carcinoma + neoplastic nodule, dosed 78 weeks, study length 111 weeks); 82.6 mg/kg/day (rat, strain Osborne-Mendel, males, in feed, site: any site (literature study), lesion: several types, types named in the paper, dosed 78 weeks, study length 111 weeks); 75.8 mg/kg/day (rat, strain Osborne-Mendel, males, in feed, site: thyroid gland, lesion: follicular-cell adenoma + follicular-cell carcinoma, dosed 78 weeks, study length 111 weeks). The carcinogen call (rat, strain Osborne-Mendel, females, in feed, site: any site (literature study), lesion: several types, types named in the paper, dosed 78 weeks, study length 111 weeks) was “negative (inactive)”.
In turn, `CSCCC(N)C(=O)O` (stereo unspecified) gave a TD50 (mouse, strain C3H/HeN, males, in feed, site: liver, lesion: hepatocellular adenoma, dosed 52 weeks, study length 52 weeks) of 4160 mg/kg/day; a TD50 (mouse, strain C3H/HeN, males, in feed, site: liver, lesion: hepatocellular carcinoma, dosed 52 weeks, study length 52 weeks) of 4470 mg/kg/day; a TD50 (mouse, strain C3H/HeN, males, in feed, site: liver, lesion: several types, types named in the paper, dosed 52 weeks, study length 52 weeks) of 2000 mg/kg/day. For the same compound, the carcinogen call (rat, strain Fischer 344, males, in feed, site: liver, lesion: neoplastic nodule, dosed 72 weeks, study length 103 weeks) is “negative (inactive)”.

For the origin of these results see PubChem BioAssay AID1745844 (Carcinogenic Potency Database (CPDB), 2022).
